Measured values: patent publication US4734418A, “Quinazoline compounds and antihypertensives” (priority 1984, dated 1988)
Like-named read-outs stand apart in the source and are kept apart here.

Tested on: Spontaneously Hypertensive Rats
Assay: Test 1: antihypertensive effects (systolic tail artery blood pressure) and heart rate in spontaneously hypertensive rats, oral
Assay type: in vivo, rat (male, SHR)
Conditions: for change in vivo at 1 mg/kg / change in vivo at 10 mg/kg: Rattus norvegicus; for Change (%) in heart rate: maximum value
Description: The antihypertensive effects of the certain compounds of this invention were studied in the following manner.
Among male, spontaneously hypertensive rats (SHRs) of 20 weeks of age or older and 350-430 g heavy all of which had developed hypertension, those having systolic blood pressures of 180 mmHg or higher were used in groups, each of which was constituted of 3-4 of the rats. […] Besides, heart rates were also measured simultaneously. The compounds were each dissolved or suspended in a 0.5% methylcellulose solution and then administered orally.
*All administered orally at a dosage of 1 mg/Kg except for the compounds
**Each percent change in heart rate is indicated by the corresponding

[1] = SHR, oral 1 mg/Kg, 1 hour, read-out: Antihypertensive effects, change (%) in blood pressure, 1 hour later
[2] = SHR, oral 1 mg/Kg, 3 hours, read-out: Antihypertensive effects, change (%) in blood pressure, 3 hours later
[3] = SHR, oral 1 mg/Kg, 6 hours, read-out: Antihypertensive effects, change (%) in blood pressure, 6 hours later
[4] = SHR, oral 1 mg/Kg, 24 hours, read-out: Antihypertensive effects, change (%) in blood pressure, 24 hours later

SMILES	change in vivo at 1 mg/kg [1]	change in vivo at 1 mg/kg [2]	change in vivo at 1 mg/kg [3]	change in vivo at 1 mg/kg [4]	Change (%) in heart rate (SHR, oral 1 mg/Kg)	change in vivo at 10 mg/kg (SHR, oral 10 mg/Kg, 1 hour, read-out: Antihypertensive effects, change (%) in blood pressure, 1 hour later)	change in vivo at 10 mg/kg (SHR, oral 10 mg/Kg, 3 hours, read-out: Antihypertensive effects, change (%) in blood pressure, 3 hours later)	change in vivo at 10 mg/kg (SHR, oral 10 mg/Kg, 6 hours, read-out: Antihypertensive effects, change (%) in blood pressure, 6 hours later)	change in vivo at 10 mg/kg (SHR, oral 10 mg/Kg, 24 hours, read-out: Antihypertensive effects, change (%) in blood pressure, 24 hours later)	Change (%) in heart rate (SHR, oral 10 mg/Kg)	change in vivo at 10 mg/kg (po, 1 h, read-out: Antihypertensive effects, change (%) in blood pressure, 1 hour later)	change in vivo at 10 mg/kg (po, 3 h, read-out: Antihypertensive effects, change (%) in blood pressure, 3 hours later)	change in vivo at 10 mg/kg (po, 6 h, read-out: Antihypertensive effects, change (%) in blood pressure, 6 hours later)	change in vivo at 10 mg/kg (po, 24 h, read-out: Antihypertensive effects, change (%) in blood pressure, 24 hours later)
CCNC(=O)c1cnc(N2CCN(c3nc(N)c4cc(OC)c(OC)cc4n3)CC2)nc1N [Example 64]	-1.4%	-9.6%	-13.9%	-1.9%	+9.9%									
CCN(CC)C(=O)c1cnc(N2CCN(c3nc(N)c4cc(OC)c(OC)cc4n3)CC2)nc1N [Example 65]						-4.9%	-18.4%	-21.4%	-6.3%	+8.9%				
CCNc1nc(N2CCN(c3nc(N)c4cc(OC)c(OC)cc4n3)CC2)ncc1C(=O)N(CC)CC [Example 67]	-21.4%	-28.6%	-38.4%	-16.7%	+7.4%									
CNC(=O)c1cnc(N2CCN(c3nc(N)c4cc(OC)c(OC)cc4n3)CC2)nc1NC [Example 68]	1.4%	-19.6%	-28.2%	-11.5%	+5.2%									
CNc1nc(N2CCN(c3nc(N)c4cc(OC)c(OC)cc4n3)CC2)ncc1C(=O)N(C)C [Example 69]	-12.9%	-22.7%	-24.7%	-4.6%	+7.4%									
COc1cc2cnc(N3CCN(c4nc(N)c5cc(OC)c(OC)cc5n4)CC3)nc2cc1OC [Example 71]	0.5%	-13.4%	-19.1%	-9.6%	+15.9%									
COc1cc2nc(N3CCN(c4nc(N)c5cc(OC)c(OC)cc5n4)CC3)nc(N)c2cc1OC [Example 72]	2.9%	-2%	-2.5%	-2.9%	+8.6%									
COc1cc2nc(N3CCN(c4nc(N(C)C)c5cc(OC)c(OC)cc5n4)CC3)nc(N)c2cc1OC [Example 73]	-0.5%	0%	-7%	-8%	+4.3%									
CCOc1nccc2nc(N3CCN(c4nc(N)c5cc(OC)c(OC)cc5n4)CC3)ncc12 [Example 74]	-0.5%	-14.1%	-23.3%	-12.1%	+9.0%									
COc1cc2nc(N3CCN(c4nc(SC)c5c6c(sc5n4)CCCC6C)CC3)nc(N)c2cc1OC (stereo not drawn) [Example 75]	12.2%	0.5%	-7.8%	-3.9%	+8.2%									
COc1cc2nc(N3CCN(c4ncc5c(n4)N(C)CCN(C)C5=O)CC3)nc(N)c2cc1OC [Example 76]	0%	-3.8%	-7.2%	-9.6%	+2.9%									
CCN(CC)C(=O)c1cnc(N2CCN(c3nc(N)c4cc(OC)c(OC)cc4n3)CC2)nc1NC [Example 77]	-31%	-32.9%	-36.2%	-13.8%	+25.1%									
CCN(CC)C(=O)c1cnc(N2CCN(c3nc(N)c4cc(OC)c(OC)cc4n3)CC2)nc1NC(C)C [Example 78]	-23.4%	-33.7%	-50.2%	-18.5%	+23.7%									
CCNc1nc(N2CCN(c3nc(N)c4cc(OC)c(OC)cc4n3)CC2)ncc1C(=O)N(C)C [Example 79]	-27.9%	-33.7%	-45.2%	-21.2%	+22.3%									
CCCN(CCC)C(=O)c1cnc(N2CCN(c3nc(N)c4cc(OC)c(OC)cc4n3)CC2)nc1NCC [Example 80]	-13.9%	-26%	-33.2%	-10.1%	+12.3%									
CCn1ccc2nc(N3CCN(c4nc(N)c5cc(OC)c(OC)c(OC)c5n4)CC3)ncc2c1=O.Cl [Example 81, 4-Amino-6,7,8-trimethoxy-2-(4-(5,6-dihydro-6-ethyl-5-oxopyrido[4,3-d]pyrimidin-2-yl)piperazino)quinazoline hydrochloride]	-0.5%	-7.3%	-12.1%	-8.7%	+3.8%									
CCn1ccc2nc(N3CCCN(c4nc(N)c5cc(OC)c(OC)cc5n4)CC3)ncc2c1=O [Example 82, 4-Amino-6,7-dimethoxy-2-(4-(5,6-dihydro-6-ethyl-5-oxopyrido[4,3-d]pyrimidin-2-yl)homopiperazino)quinazoline]	0.5%	-6.9%	-8.8%	-6.4%	+5.8%									
COc1cc2nc(N3CCN(c4ncc5c(=O)n(C)[nH]c5n4)CC3)nc(N)c2cc1OC.Cl [Example 83, 4-Amino-6,7-dimethoxy-2-(4-(2-methyl-3-oxo-2,3-dihydro-1H-pyrazolo[3,4-d]pyrimidine-6-yl)piperazino)quinazoline hydrochloride]	-3.9%	-4.4%	-5.3%	-0.5%	+5.6%									
CCOC(=O)c1cnc(N2CCN(c3nc(N)c4cc(OC)c(OC)cc4n3)CC2)nc1C(=O)OCC [Example 84]	0.5%	0%	-1.5%	-0.5%	+2.2%									
CCNC(=O)c1cnc(N2CCN(c3nc(N)c4cc(OC)c(OC)cc4n3)CC2)nc1C(=O)NCC [Example 85]	-1.5%	-7.3%	-12.2%	-3.9%	+3.5%									
COc1cc2nc(N3CCN(c4ncc5c(n4)CN(CCN(C)C)C5=O)CC3)nc(N)c2cc1OC [Example 86]	0.5%	0%	-6.4%	-0.5%	+7.1%									
COCCN1Cc2nc(N3CCN(c4nc(N)c5cc(OC)c(OC)cc5n4)CC3)ncc2C1=O [Example 87]		-15.2%	-21.6%	-2.5%	+17.7%									
COc1cc2nc(N3CCN(c4ncc5c(n4)CN(CCO)C5=O)CC3)nc(N)c2cc1OC [Example 88]	0.5%	-4.4%	-6.9%	-2%	+5.8%									
COc1cc2nc(N3CCN(c4ncc5c(n4)CN(CCc4ccccc4)C5=O)CC3)nc(N)c2cc1OC [Example 89]	-2.4%	-13.3%	-13.8%	-2.9%	+5.8%									
CCCCCCCN1Cc2nc(N3CCN(c4nc(N)c5cc(OC)c(OC)cc5n4)CC3)ncc2C1=O [Example 90]	2.3%	-6.8%	-15.5%	-2.7%	+8.7%									
COc1cc2nc(N3CCN(c4ncc5c(n4)CN(C4CCCCC4)C5=O)CC3)nc(N)c2cc1OC [Example 91]	-4%	-8%	-12.9%	-2.5%	+8.2%									
COc1cc2nc(N3CCN(c4ncc([N+](=O)[O-])cc4[N+](=O)[O-])CC3)nc(N)c2cc1OC [Example 92]										+8.5%	1.4%	-3.3%	-9.4%	-6.1%
CCN(CC)C(=O)c1ccc(N2CCN(c3nc(N)c4cc(OC)c(OC)cc4n3)CC2)nc1 [Example 93]	-4.5%	-9%	-10.5%	-5%	+8.0%									
COc1cc2nc(N3CCN(c4ccc5ccccc5n4)CC3)nc(N)c2cc1OC.Cl [Example 94, 4-Amino-6,7-dimethoxy-2-(4-(2-quinolyl)piperazino)quinazoline hydrochloride]	-0.5%	-12.7%	-22.1%	-5.4%	+5.4%									
